In US7662222B2, “Method and use of nanoparticles to bind biocides in paints” (I-Tech AB, priority 2005, dated 2010):
Entries after “also recorded” stand apart in the source; their conditions may differ.

Columns and labels:
[1] = adsorption of biocides onto CuO and ZnO nanoparticles in o-xylene, non-adsorbed biocide by HPLC-UV; format: physicochemical; settings: biocide 50 mM
Description: To 50 ml of the solvent o-xylene, the biocide was added at a total concentration of 50 mM. Nano-particles (Sigma-Aldrich Sweden AB, Stockholm, Sweden) were then added in relevant concentrations according to the test protocol and after each addition the concentration of non-adsorbed Medetomidine (Orion Pharma, Helsinki, Finland) was measured with a standard HPLC-UV technique. The UV-absorbance maximum of Medetomidine was, from the literature, found to be 220 nm. Prior to the HPLC analysis the UV-absorbance maximum was investigated in order to verify the value given from the literature using a UV-spectrometer (GBC 920 UV/visible spectrometer, Scientific Equipments Ltd., Victoria, Australia).
The samples were analysed on a HPLC-UV system consisting of a Merck-Hitachi L-6200 pump (Merck-Hitachi, Darmstadt, Germany), a Supelco Discovery® (Sigma-Aldrich Sweden AB, Stockholm, Sweden) C18 (25 cm×4.6 mm, 5 m) column fitted with a prefilter (0.5 μm) and a Spectra-Physics Spectra 100 UV (Spectra-Physics Inc, Irvine Calif., USA) operating at 220 nm. The mobile phase was MilliQ-water:Acetonitrile (0.1% TFA v/v (mobile phase A): 0.1% TFA v/v (mobile phase B)) run over a gradient (6% B for two min then an increase up to 60% B in 15 min, a further increase up to 100% B in 3 min and then isocratic for 3 min before returning to the starting values in 2 min) at a flow rate of […]. The peak separation was monitored by UV (220 nm). Manual injections of 100 micro-liter were made and the data was collected and integrated using the Millenium software (version 3.20, 1999)(Waters Inc, Milford Mass., USA).

[2] = CuO (5 μm) instead of nanoparticle, o-xylene
Description: The different nanoparticles used (ZnO, CuO, Al2O3, MgO, TiO2, CO3O4) were bought from Sigma (Sigma-Aldrich Sweden AB, Stockholm, Sweden) and used without further purification. 50 ml of o-xylene was added to a beaker to which 50 mM of Medetomidine (Orion Pharma, Helsinki, Finland) was added. Nanoparticles were then added and after each addition the amount of free Medetomidine was measured with HPLC-UV (as in example 1 above).

[3] = test system: barnacles; settings: reported pharmacological compounds; cited from earlier work

Medetomidine adsorption onto micrometer sized particle [2]	Compound	adsorption of antifouling agent onto nanoparticles [1]	effect on attachment / settlement of barnacles [3]
negligible	Cc1cccc(C(C)c2cnc[nH]2)c1C (racemic) [Medetomidine, (S,R)-4(5)-[1-(2,3-dimethylphenyl)ethyl]-1H-imidazole]	Large fractions of Medetomidine are adsorbed already at low particle concentrations; also recorded: best adsorption	efficient inhibitor
	CC(C)C[C@H]1C(=O)N2CCC[C@H]2[C@]2(O)O[C@](NC(=O)[C@@H]3C=C4c5cccc6[nH]c(Br)c(c56)C[C@H]4N(C)C3)(C(C)C)C(=O)N12 [(+)-Bromocriptine]		inhibitory properties
	O=C(c1ccc(F)cc1)C1CCN(CCn2c(=O)[nH]c3ccccc3c2=O)CC1 [Ketanserin]		inhibitory properties
	CCCN1CCc2cccc3c2[C@H]1Cc1ccc(O)c(O)c1-3 [R (−)-NPA]		inhibitory properties
	CCCCCCCCn1sc(Cl)c(Cl)c1=O [SeaNine, 4,5-dichloro-2-n-octyl-3(2H)-isothiazolone]	exhibited adsorption	
	CN(C)C(=O)Nc1ccc(Cl)c(Cl)c1 [diuron, 3-(3,4-dichlorophenyl)-1,1-dimethylurea]	exhibited adsorption	
	CSc1nc(NC2CC2)nc(NC(C)(C)C)n1 [igarol, 2-methylthio-4-tert-butylamino-6-cyclopropylamino-s-triziane]	exhibited adsorption	
